Test results published in US12048686B2, “Compositions and methods for activating NRF2-dependent gene expression” (The University of Chicago, priority 2018, dated 2024).

Legend:
[1] = target: GAPDH (Homo sapiens, UniProt P04406); test: GAPDH equilibrium in the GAPDH/PGK1 coupled assay; format: biochemical; details: without PGK1
From the text: FIG. 6A-D. CBR-470-1 inhibits PGK1 in vitro and in situ. (a) Schematic of the GAPDH/PGK1 coupled assay. Pre-equilibration of the GAPDH reaction (top left) results in an NAD^+/NADH equilibrium, which upon addition of PGK1 and ADP pulls the reaction to the right producing more NADH. Monitoring NADH absorbance after addition of PGK1 (bottom right) can be used to monitor PGK1 activity in the forward direction (right). […] (c, d) Relative level of central metabolites in IMR32 cells treated with viral knockdown of PGK1 for 72 hours (c) (n=4) and with CBR-470-1 relative DMSO alone for the indicative times (d) (n=3). Each metabolite is normalized to the control condition at each time point. Data shown represent mean±SEM of biologically independent samples.
Recombinant PGK1 assay. PGK1 enzymatic activity in the forward direction was measured with a coupled enzymatic assay^34. Three PGK1 conditions were prepared by dissolving recombinant PGK1 in potassium phosphate buffer (10 mM KH2PO4, 10 mM MgSO4, pH 7.0), and transferring the aliquots of PGK1 solution to the microtubes being treated with same amount of DMSO and indicated concentrations of CBR-470-1. Final concentration of PGK1 is 20 ng/mL and DMSO is 1% for each sample. […] The change in absorbance at 340 nm at room temperature was measured every 20 seconds for 45 minutes, by Tecan Infinite M200 plate reader. […]

[2] = target: T1, PGK1 (Homo sapiens, UniProt P00558); test: Isothermal dose response profiling of PGK1 against GAPDH; format: binding; details: 57° C., 0-333 μM
T1 sequence (P00558 1-417): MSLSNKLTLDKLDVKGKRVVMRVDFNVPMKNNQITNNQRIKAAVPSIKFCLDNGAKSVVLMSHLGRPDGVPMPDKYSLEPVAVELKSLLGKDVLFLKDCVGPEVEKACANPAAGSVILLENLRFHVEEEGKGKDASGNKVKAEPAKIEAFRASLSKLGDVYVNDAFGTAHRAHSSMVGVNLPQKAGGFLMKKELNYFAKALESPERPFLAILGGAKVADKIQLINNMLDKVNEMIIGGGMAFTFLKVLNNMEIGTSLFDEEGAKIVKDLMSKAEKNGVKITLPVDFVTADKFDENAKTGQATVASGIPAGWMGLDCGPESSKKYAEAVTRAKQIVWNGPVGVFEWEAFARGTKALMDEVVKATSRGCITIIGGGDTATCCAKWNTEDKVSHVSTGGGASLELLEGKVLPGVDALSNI
Procedure: FIG. 5A-E. A photoactivatable affinity probe-based approach identifies PGK1 as the relevant cellular target of CBR-470-1. (a) Silver staining and anti-biotin Western blots of ammonium sulfate fractionated lysates from UV-irradiated IMR32 cells treated with 5 μM for 1 hour with or without CBR-470-1 competition (250 μM) (n=3). Shown on the right are initial proteomic target results from gel-band digestion and LC-MS/MS analysis. (b) Dye-based thermal denaturation assay with recombinant PGK1 in the presence CBR-470-1 (20 μM) or vehicle alone (n=3). Calculated Tm values are listed. (c, d) Dose-dependent thermal stability assay of recombinant PGK1 and GAPDH in the presence of increasing doses of CBR-470-1 near the Tm of both proteins (57° C.) (c) (n=5) or room temperature (d) (n=3). Western blot of sample supernatants after centrifugation (13,000 rpm) detected total PGK1 and GAPDH protein, which were plotted in Prism (below). (e) ARE-LUC reporter activity in HEK293T cells with transient shRNA.
Isothermal dose response profiling of PGK1. In-vitro thermal profiling assay for recombinant proteins was performed by dissolving pure recombinant PGK1 and GAPDH into PBS and dividing equal amount of mixture into 9 aliquots. […] Samples were analyzed by SDS-PAGE and Western blot.

GAPDH, sequence (P04406 whole entry, species assumed): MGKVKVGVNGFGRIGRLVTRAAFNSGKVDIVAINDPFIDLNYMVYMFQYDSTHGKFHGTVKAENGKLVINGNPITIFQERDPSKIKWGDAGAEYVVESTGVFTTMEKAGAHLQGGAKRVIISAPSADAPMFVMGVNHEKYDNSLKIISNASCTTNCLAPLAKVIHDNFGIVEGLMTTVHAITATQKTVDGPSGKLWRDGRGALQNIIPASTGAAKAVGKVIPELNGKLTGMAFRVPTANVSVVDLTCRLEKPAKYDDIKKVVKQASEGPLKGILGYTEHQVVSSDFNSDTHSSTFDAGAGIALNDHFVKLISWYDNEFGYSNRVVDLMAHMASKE

CC(C)CN[C@H]1CS(=O)(=O)C[C@@H]1S(=O)(=O)c1ccc(Cl)cc1 [CBR-470-1]
GAPDH equilibrium [1]: does not affect the GAPDH equilibrium alone | alteration of PGK1 stability, isothermal dose response against PGK1 and GAPDH [2]: selective, dose-dependent alteration of PGK1 stability
